# In the Deep4Chem optical property database:
# Assay: photoluminescence quantum yield (fraction); solvent given as SMILES
structure (smiles),measurement,setting,value
c1ccc(C2=C(c3ccccc3)c3cccc4c5c(cc(c34)O2)=NC2CCCCC2N=5)cc1 (stereo not drawn),photoluminescence quantum yield,in ClCCl,0.52
COC(=O)[C@@H]1C(=O)Oc2ccccc2[C@H]1c1c[nH]c2ccccc12,photoluminescence quantum yield,in CS(C)=O,0.0094
N#Cc1nn(-c2ccc(F)cc2)nc1N1CCCC1,photoluminescence quantum yield,in CC#N,0.683
COc1cc(OC)cc(C2=C3C(C)=C(I)C(C)=[N+]3[B-](F)(F)n3c(/C=C/c4c[nH]c5ccccc45)c(I)c(C)c32)c1,photoluminescence quantum yield,in C1CCOC1,0.2
same,photoluminescence quantum yield,in CS(C)=O,0.17
same,photoluminescence quantum yield,in ClCCl,0.19
Clc1cc(Cl)c([C](c2c(Cl)cc(Cl)cc2Cl)c2c(Cl)cc(-n3c4ccccc4c4ccccc43)cc2Cl)c(Cl)c1,photoluminescence quantum yield,in C1CCCCC1,0.64
same,photoluminescence quantum yield,in ClC(Cl)Cl,0.06
N#C/C(=C\c1ccncc1)c1nc(-c2ccccc2)cs1,photoluminescence quantum yield,in CC#N,0.263
same,photoluminescence quantum yield,in CCO,0.6
same,photoluminescence quantum yield,in CN(C)C=O,0.406
same,photoluminescence quantum yield,in CS(C)=O,0.124
same,photoluminescence quantum yield,in Cc1ccccc1,0.346
same,photoluminescence quantum yield,in ClCCl,0.086
C(#Cc1ccc(-n2c3ccccc3c3ccccc32)cc1)c1ccc(-c2nc(-c3ccc(C#Cc4ccc(-n5c6ccccc6c6ccccc65)cc4)cc3)nc(-c3ccc(C#Cc4ccc(-n5c6ccccc6c6ccccc65)cc4)cc3)n2)cc1,photoluminescence quantum yield,in C1CCOC1,0.69
same,photoluminescence quantum yield,in CC#N,0.02
same,photoluminescence quantum yield,in CCCCCC,0.94
same,photoluminescence quantum yield,in Cc1ccccc1,1
same,photoluminescence quantum yield,in ClCCl,0.67
c1ccc(-c2nc3c4ccccc4c4ccccc4c3n2-c2cccc(-c3nc4c5ccccc5c5ccccc5c4n3-c3ccccc3)c2)cc1,photoluminescence quantum yield,in Cc1ccccc1,0.75
COC(=O)c1ccc(/C=C2\C=C(c3ccc(C#N)cc3)N(CC(C)C)C2=O)cc1,photoluminescence quantum yield,in C1COCCO1,0.192
O=c1oc2ccccc2c2c1c(=O)oc1cc(O)cc(O)c12,photoluminescence quantum yield,in ClCCl,0.1
CC(=O)c1ccc2ccc3cccc4ccc1c2c34,photoluminescence quantum yield,in C1CCOC1,0.002
same,photoluminescence quantum yield,in CC#N,0.002
same,photoluminescence quantum yield,in CCCCCC,0.002
same,photoluminescence quantum yield,in CCO,0.012
same,photoluminescence quantum yield,in CN(C)C=O,0.002
same,photoluminescence quantum yield,in CO,0.014
same,photoluminescence quantum yield,in Cc1ccccc1,0.003
same,photoluminescence quantum yield,in ClCCl,0.002
COc1ccc(C2=[N+]3C(=Nc4c5c6cc(OC)c(OC)c(OC)c6c6cc(C(C)(C)C)ccc6c5c(-c5ccc(OC)cc5)n4[B-]3(F)F)c3c2c2ccc(C(C)(C)C)cc2c2c(OC)c(OC)c(OC)cc32)cc1,photoluminescence quantum yield,in Cc1ccccc1,0.35
C[Si]1(C)C(c2ccccc2)=Cc2ccccc21,photoluminescence quantum yield,in ClCCl,0.55
CC(C)(C)c1ccc(N(c2ccccc2)c2ccc3ccc4c(N(c5ccccc5)c5ccc(C(C)(C)C)cc5)ccc5ccc2c3c54)cc1,photoluminescence quantum yield,in ClCCl,0.71
C[n+]1ccc(-c2cc[n+](C)cc2)cc1,photoluminescence quantum yield,in CC#N,0.02
FC(F)(F)c1ccccc1B1c2ccccc2Nc2ccccc21,photoluminescence quantum yield,in ClCCl,0.85
COC(=O)c1ccccc1-c1c2ccc(=[NH2+])cc-2oc2cc(N)ccc12,photoluminescence quantum yield,in CC#N,1
same,photoluminescence quantum yield,in CCO,0.88
same,photoluminescence quantum yield,in CN(C)C=O,0.74
same,photoluminescence quantum yield,in O,0.89
O=C1c2ccccc2-c2nc3ccccc3n21,photoluminescence quantum yield,in ClCCl,0.04
Cc1ccc2cc3cc(C)ncc3cc2c1,photoluminescence quantum yield,in CCO,0.48
COc1c2ccccc2c(OC)c2c1c1ccc(C)cc1n2C,photoluminescence quantum yield,in C1CCCCC1,0.4
same,photoluminescence quantum yield,in CC#N,0.42
same,photoluminescence quantum yield,in CO,0.34
same,photoluminescence quantum yield,in ClCCl,0.57
Cc1nc2cccc(-c3nc4ccccc4[nH]3)c2c(=O)[nH]1,photoluminescence quantum yield,in CN(C)C=O,0.088
COCCC1=Cc2nc1ccc1[nH]c(cc1CCOC)c1nc(c(N3C(=O)CCCC3=O)cc3[nH]c2cc3CCOC)C(CCOC)=C1,photoluminescence quantum yield,in Cc1ccccc1,0.36
CCCC1=Cc2nc1ccc1[nH]c(cc1CCC)c1nc(c(OCc3ccc(C(=O)O)cc3)cc3[nH]c2cc3CCC)C(CCC)=C1,photoluminescence quantum yield,in Cc1ccccc1,0.21
c1ccc2sc(-c3ccc(-c4nnc(-c5ccc(-c6nnc(-c7ccc(-c8cc9ccccc9s8)s7)o6)cc5)o4)s3)cc2c1,photoluminescence quantum yield,in ClC(Cl)Cl,0.61
c1csc(-c2ccc(-c3cccs3)s2)c1,photoluminescence quantum yield,in CC#N,0.09
same,photoluminescence quantum yield,in ClCCl,0.05
Cc1ccc2c(c1)C(C)(C)c1cc(C)ccc1N2c1ccc2c(c1)C(C)(C)c1cc(N3c4ccc(C)cc4C(C)(C)c4cc(C)ccc43)ccc1S2(=O)=O,photoluminescence quantum yield,in O=P(c1ccccc1)(c1ccccc1)c1ccccc1Oc1ccccc1P(=O)(c1ccccc1)c1ccccc1,0.73
Cc1ccc(/C=C/C(F)(F)F)c(N)c1,photoluminescence quantum yield,in C1CCOC1,0.62
Cc1ccc(N(c2ccc(C)cc2)c2ccc3c4cccc5c(N(c6ccc(C)cc6)c6ccc(C)cc6)ccc(c6cccc2c63)c54)cc1,photoluminescence quantum yield,in ClCCl,0.61
Cc1ccc(-c2ccccc2)cc1,photoluminescence quantum yield,in C1CCCCC1,0.23
COc1cc(/C=C/c2ccncc2)c(OC)cc1C=O,photoluminescence quantum yield,in C1CCOC1,0.11
same,photoluminescence quantum yield,in CC#N,0.17
same,photoluminescence quantum yield,in CN(C)C=O,0.15
same,photoluminescence quantum yield,in Cc1ccccc1,0.09
same,photoluminescence quantum yield,in ClCCl,0.26
CN(C)CCN(Cc1c2ccccc2cc2ccccc12)c1ccc([N+](=O)[O-])cn1,photoluminescence quantum yield,in C1CCCCC1,0.0003
same,photoluminescence quantum yield,in C1CCOC1,0.0009
same,photoluminescence quantum yield,in CC#N,0.0383
same,photoluminescence quantum yield,in CC(C)=O,0.00324
same,photoluminescence quantum yield,in CCO,0.0115
same,photoluminescence quantum yield,in CN(C)C=O,0.0398
same,photoluminescence quantum yield,in CO,0.00453
same,photoluminescence quantum yield,in ClC(Cl)Cl,0.005
